In US11530223B2, “Spiro-lactam NMDA receptor modulators and uses thereof” (Aptinyx Inc., priority 2016, dated 2022):
Like-named read-outs stand apart in the source and are kept apart here.

Columns and labels:
[1] = target: T1, NMDAR2A (Homo sapiens, UniProt Q12879); assay: [3H]MK-801 binding in NMDAR2A expressing HEK cell membranes; type: biochemical; parameters: key to B: log EC50: 0=−; ≥1×10^−9 M (e.g., −8)=+; <1×10^−9 M (e.g., −10)=++; settings: 50 μM glutamate; for EC50: read-out: B: log EC50 (converted)
T1 construct: expressed in transfected cells; host or cells: HEK cells (membrane extract)
T1 sequence (Q12879 23-1464, species assumed, other chains not shown): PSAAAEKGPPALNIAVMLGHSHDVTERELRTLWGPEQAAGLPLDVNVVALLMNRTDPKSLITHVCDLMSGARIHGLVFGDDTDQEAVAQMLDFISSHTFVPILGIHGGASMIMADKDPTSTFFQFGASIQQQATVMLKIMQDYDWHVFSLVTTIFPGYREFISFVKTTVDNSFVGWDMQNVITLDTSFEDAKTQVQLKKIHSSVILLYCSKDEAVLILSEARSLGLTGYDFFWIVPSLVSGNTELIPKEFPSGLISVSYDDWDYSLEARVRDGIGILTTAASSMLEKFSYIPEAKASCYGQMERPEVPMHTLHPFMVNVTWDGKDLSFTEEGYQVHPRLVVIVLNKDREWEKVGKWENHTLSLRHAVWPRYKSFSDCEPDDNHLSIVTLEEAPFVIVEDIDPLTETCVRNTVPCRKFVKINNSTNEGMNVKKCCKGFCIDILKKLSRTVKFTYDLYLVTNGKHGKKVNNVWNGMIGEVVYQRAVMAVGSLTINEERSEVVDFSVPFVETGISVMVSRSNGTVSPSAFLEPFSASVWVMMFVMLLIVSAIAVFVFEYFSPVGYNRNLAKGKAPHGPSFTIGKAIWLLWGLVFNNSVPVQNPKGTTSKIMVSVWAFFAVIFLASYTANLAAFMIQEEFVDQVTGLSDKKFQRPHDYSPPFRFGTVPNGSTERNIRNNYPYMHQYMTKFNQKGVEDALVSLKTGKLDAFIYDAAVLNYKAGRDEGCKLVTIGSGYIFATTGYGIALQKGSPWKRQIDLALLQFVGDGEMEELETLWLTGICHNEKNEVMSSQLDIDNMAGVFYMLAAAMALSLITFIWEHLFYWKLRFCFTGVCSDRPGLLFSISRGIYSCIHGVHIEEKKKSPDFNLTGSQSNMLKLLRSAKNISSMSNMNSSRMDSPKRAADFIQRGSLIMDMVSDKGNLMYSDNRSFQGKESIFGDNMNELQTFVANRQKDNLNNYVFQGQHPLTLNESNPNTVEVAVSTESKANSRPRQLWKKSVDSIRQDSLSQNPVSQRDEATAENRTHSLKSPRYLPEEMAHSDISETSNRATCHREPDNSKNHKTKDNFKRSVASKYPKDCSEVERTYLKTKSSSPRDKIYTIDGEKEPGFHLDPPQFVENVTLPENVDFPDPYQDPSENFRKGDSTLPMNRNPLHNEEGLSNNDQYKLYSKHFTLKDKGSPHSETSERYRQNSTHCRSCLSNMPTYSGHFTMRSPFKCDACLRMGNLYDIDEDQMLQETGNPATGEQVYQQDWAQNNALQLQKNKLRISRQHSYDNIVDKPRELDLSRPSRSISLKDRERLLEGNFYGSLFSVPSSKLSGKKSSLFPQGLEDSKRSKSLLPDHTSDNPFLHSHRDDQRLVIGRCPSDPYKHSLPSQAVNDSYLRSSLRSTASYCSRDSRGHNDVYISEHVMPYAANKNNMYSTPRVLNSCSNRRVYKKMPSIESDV
Procedure: (§1) Assays were conducted as described by Moskal et al., “GLYX-13: a monoclonal antibody-derived peptide that acts as an N-methyl-D-aspartate receptor modulator,” Neuropharmacology, 49, 1077-87, 2005. These studies were designed to determine if the test compounds act to facilitate NMDAR activation in NMDAR2A, NMDAR2B, NMDAR2C or NMDAR2D expressing HEK cell membranes as measured by increases in [^3H]MK-801 binding.
(§2) In the assay, 300 μg of NMDAR expressing HEK cell membrane extract protein was preincubated for 15 minutes at 25° C. in the presence of saturating concentrations of glutamate (50 μM) and varying concentrations of test compound (1×10^−15M−1×10^−7M), or 1 mM glycine. Following the addition of 0.3 μCi of [^3H]MK-801 (22.5 Ci/mmol), reactions were again incubated for 15 minutes at 25° C. (nonequilibrium conditions). Bound and free [^3H]MK-801 were separated via rapid filtration using a Brandel apparatus.
(§3) In analyzing the data, the DPM (disintegrations per minute) of [^3H]MK-801 remaining on the filter were measured for each concentration of test compound or for 1 mM glycine. The DPM values for each concentration of a ligand (N=2) were averaged. The baseline value was determined from the best fit curve of the DPM values modeled using the GraphPad program and the log(agonist) vs. response (three parameters) algorithm was then subtracted from all points in the dataset. The % maximal [^3H]MK-801 binding was then calculated relative to that of 1 mM glycine: all baseline subtracted DPM values were divided by the average value for 1 mM glycine. The EC50 and % maximal activity were then obtained from the best fit curve of the % maximal [^3H]MK-801 binding data modelled using the GraphPad program and the log(agonist) vs. response (three parameters) algorithm.
(§4) The tables below summarize the results for the wild type […] NMDAR2A, NMDAR2B, NMDAR2C, and NMDAR2D, and whether the compound is not an agonist (−), is an agonist (+), or is a strong agonist (++), where column A is based on the % maximal [^3H]MK-801 binding relative to 1 mM glycine (−=0; <100%=+; and >100%=++); and column B is based on log EC50 values (0=−; ≥1×10^−9 M (e.g., −8)=+; and <1×10^−9 M (e.g., −10)=++).

[2] = target: T2, NMDAR2B (Homo sapiens, UniProt Q13224); assay: [3H]MK-801 binding in NMDAR2B expressing HEK cell membranes; type: biochemical; parameters: key to B: log EC50: 0=−; ≥1×10^−9 M (e.g., −8)=+; <1×10^−9 M (e.g., −10)=++; settings: 50 μM glutamate; for Emax: read-out: A: % maximal [3H]MK-801 binding relative to 1 mM glycine; for EC50: read-out: B: log EC50 (converted)
T2 construct: expressed in transfected cells; host or cells: HEK cells (membrane extract)
T2 sequence (Q13224 27-1484, species assumed, other chains not shown): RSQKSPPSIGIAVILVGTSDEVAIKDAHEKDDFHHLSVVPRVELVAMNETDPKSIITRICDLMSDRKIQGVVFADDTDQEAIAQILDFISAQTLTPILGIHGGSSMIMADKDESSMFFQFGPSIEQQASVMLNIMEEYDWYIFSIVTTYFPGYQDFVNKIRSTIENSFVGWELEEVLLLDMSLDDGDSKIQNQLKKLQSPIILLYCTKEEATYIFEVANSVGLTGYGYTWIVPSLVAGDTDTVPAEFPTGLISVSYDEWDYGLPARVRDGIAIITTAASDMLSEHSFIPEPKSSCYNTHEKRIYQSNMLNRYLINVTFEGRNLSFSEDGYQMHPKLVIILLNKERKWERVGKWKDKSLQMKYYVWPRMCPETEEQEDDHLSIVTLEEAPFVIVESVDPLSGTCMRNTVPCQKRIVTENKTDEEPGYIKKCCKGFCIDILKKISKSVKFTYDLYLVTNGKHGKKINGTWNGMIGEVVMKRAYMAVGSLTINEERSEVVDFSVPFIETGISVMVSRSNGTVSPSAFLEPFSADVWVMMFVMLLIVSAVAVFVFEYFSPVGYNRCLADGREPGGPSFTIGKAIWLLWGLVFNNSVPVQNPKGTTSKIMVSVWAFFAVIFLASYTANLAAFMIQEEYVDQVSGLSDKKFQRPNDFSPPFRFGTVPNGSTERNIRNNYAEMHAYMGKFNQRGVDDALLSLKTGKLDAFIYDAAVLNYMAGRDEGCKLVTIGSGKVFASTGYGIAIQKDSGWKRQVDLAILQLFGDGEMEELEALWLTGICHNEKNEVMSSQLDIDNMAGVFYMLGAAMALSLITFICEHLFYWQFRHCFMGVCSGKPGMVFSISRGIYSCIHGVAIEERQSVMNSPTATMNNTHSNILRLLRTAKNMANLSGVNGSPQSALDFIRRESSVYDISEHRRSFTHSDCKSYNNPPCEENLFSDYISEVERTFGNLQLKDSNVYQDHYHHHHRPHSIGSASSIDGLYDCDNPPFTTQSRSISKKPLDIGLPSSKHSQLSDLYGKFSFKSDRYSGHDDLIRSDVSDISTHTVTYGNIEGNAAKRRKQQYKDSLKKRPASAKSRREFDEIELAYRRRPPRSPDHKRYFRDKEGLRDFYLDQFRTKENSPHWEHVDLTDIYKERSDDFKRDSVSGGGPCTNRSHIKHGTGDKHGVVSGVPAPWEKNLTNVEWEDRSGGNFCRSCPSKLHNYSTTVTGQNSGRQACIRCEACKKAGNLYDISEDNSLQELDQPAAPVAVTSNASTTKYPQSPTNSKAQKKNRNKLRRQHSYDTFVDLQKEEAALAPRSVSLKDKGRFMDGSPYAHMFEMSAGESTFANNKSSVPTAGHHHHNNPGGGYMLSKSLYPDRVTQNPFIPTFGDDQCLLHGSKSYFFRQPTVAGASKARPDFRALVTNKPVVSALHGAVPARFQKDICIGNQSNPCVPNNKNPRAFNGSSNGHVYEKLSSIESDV
Procedure: as §1, §2, §3, §4

[3] = target: T3, NMDAR2D (Homo sapiens, UniProt O15399+Q05586); assay: [3H]MK-801 binding in NMDAR2D expressing HEK cell membranes; type: biochemical; parameters: key to B: log EC50: 0=−; ≥1×10^−9 M (e.g., −8)=+; <1×10^−9 M (e.g., −10)=++; settings: for Emax: second part of table, c3, taken as NMDAR2D, read-out: A: % maximal [3H]MK-801 binding relative to 1 mM glycine
T3 construct: expressed in transfected cells; host or cells: HEK cells (membrane extract)
T3 sequence (O15399 28-1336, species assumed, other chains not shown): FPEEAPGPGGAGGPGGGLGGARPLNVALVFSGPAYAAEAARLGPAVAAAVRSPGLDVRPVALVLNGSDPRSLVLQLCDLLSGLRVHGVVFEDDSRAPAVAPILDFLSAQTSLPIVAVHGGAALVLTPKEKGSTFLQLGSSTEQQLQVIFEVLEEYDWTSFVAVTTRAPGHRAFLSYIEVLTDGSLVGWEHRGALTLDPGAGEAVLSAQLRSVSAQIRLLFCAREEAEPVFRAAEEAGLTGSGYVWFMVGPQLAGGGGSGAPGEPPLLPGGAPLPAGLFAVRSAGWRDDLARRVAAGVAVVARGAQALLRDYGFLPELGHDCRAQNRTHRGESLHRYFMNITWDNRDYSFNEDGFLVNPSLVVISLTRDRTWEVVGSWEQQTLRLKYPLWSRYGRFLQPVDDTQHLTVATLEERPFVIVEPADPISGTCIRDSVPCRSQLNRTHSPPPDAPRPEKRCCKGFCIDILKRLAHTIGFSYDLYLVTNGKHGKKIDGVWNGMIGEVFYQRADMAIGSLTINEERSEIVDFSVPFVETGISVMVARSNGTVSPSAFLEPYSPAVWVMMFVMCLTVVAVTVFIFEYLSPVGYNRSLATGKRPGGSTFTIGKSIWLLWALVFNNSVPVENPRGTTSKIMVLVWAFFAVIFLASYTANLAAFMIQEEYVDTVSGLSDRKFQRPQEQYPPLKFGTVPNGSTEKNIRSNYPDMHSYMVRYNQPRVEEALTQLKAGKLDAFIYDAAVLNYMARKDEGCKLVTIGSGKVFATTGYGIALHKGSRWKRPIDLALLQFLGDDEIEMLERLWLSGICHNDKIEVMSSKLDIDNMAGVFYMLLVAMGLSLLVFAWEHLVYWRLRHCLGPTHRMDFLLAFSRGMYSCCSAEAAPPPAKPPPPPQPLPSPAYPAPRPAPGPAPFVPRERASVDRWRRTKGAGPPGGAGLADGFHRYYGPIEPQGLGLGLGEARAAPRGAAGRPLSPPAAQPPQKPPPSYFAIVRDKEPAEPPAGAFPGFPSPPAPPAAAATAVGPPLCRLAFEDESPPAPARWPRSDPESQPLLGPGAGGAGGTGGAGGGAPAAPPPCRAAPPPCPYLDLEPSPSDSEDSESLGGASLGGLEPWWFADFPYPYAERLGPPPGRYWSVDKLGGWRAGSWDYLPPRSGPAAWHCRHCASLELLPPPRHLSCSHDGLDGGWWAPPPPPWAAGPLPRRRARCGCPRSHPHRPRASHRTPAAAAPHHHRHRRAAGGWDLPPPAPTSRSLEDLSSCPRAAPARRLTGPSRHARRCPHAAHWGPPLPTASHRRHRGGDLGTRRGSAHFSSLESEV
Procedure: as §1, §2, §3, §4

[4] = IV pharmacokinetics; type: in vivo; settings: Sprague Dawley rats; for C0: normal saline (first four compounds: 5% NMP, 5% Solutol HS, 90% normal saline); for Vd: read-out: Vss
Procedure: Sprague Dawley rats were dosed intravenously using a normal saline formulation containing 2 mg/kg of the compounds identified in the below table (except for the first four compounds that were delivered in 5% NMP, 5% Solutol® HS and 90% normal saline formulation). The table below summarizes the results of the IV pharmacokinetics.

[5] = oral pharmacokinetics (plasma, brain, CSF); type: in vivo; settings: Sprague Dawley rats, per os 10 mg/kg; for AUC(0-t) / bioavailability / Tmax / Cmax: plasma; for Tmax: normal saline (first four compounds: 5% NMP, 5% Solutol HS, 90% normal saline), read-out: Tmax
Procedure: Plasma, brain, and CSF samples were analyzed at various time points over a 24 hour period.

[6] = test system: Sprague Dawley rats; assay: Porsolt forced swim test; type: in vivo; settings: 0.1 mg/kg; for % reduction in float time: relative to vehicle group
Procedure: A non-clinical in vivo pharmacology study (Porsolt assay) was performed to measure antidepressant-like effects. A negative control (0.5% sodium carboxymethyl cellulose in 0.9% sterile saline vehicle) and a positive control (fluoxetine) are shown for comparison against test compound. The study allowed for the evaluation of the effects of each compound on the Porsolt forced swim test as assessed by the rats' response (reduced floating time) during a 5-minute swimming test.
Male 2-3 month old Sprague Dawley rats were used (Harlan, Indianapolis, Ind.). Rats were housed in Lucite cages with aspen wood chip bedding, maintained on a 12:12 light:dark cycle (lights on at 5 AM), and given ad libitum access to Purina lab chow (USA) and tap water throughout the study.
The Porsolt forced swim test adapted for use in rats was performed as described by Burgdorf et al., (The long-lasting antidepressant effects of rapastinel (GLYX-13) are associated with a metaplasticity process in the medial prefrontal cortex and hippocampus. Neuroscience 308:202-211, 2015). Animals were placed in a 46 cm tall×20 cm in diameter clear glass tube filled to 30 cm with tap water (23±1° C.) for 15 min on the first day (habituation) and 5 min on the subsequent test day. Positive control fluoxetine was dosed 3 times (24 h, 5 h and 1 h) prior to testing. Animals were tested 1 h or 24 h post-dosing with the test compounds or vehicle. Animals received a 15 min habituation session 1 day before the 5 min test. A subset of compounds tested at 1 h post-dosing were retested at 1 wk post-dosing in the same sets of animals. Water was changed after every other animal. Animals were videotaped, and floating time as defined as the minimal amount of effort required to keep the animals head above water was scored offline by a blinded experimenter with high inter-rater reliability (Pearson's r>0.9).
Each compound tested at dose level shown. Significance vs. vehicle group for each experiment is marked. […] A compound marked “No” was not statistically significant from vehicle. Data was averaged for test compound and vehicle groups (N approximately 8 per group) and the percent reduction in floating for group treated with test compound relative to group treated with vehicle is shown.

[7] = test system: rats; assay: positive emotional learning (PEL) test, 50-kHz ultrasonic vocalizations; type: in vivo; settings: rat, PO, dose .001-1 mg/kg, one hour after administration
Procedure: Experiments were conducted as described in Burgdorf et al., “The effect of selective breeding for differential rates of 50-kHz ultrasonic vocalizations on emotional behavior in rats,” Devel. Psychobiol., 51:34-46 (2009). Rat 50-kHz ultrasonic vocalization (hedonic USVs) is a validated model for the study of positive affective state and is best elicited by rough-and-tumble play.
The PEL assay measures the acquisition of positive (hedonic) 50-kHz ultrasonic vocalizations (USVs) to a social stimulus, heterospecific rough and tumble play stimulation. Heterospecific rough-and-tumble play stimulation was administered by the experimenter's right hand. One hour after administration of test compound or vehicle negative control (0.5% sodium carboxymethyl cellulose in 0.9% sterile saline vehicle), animals received 3 min of heterospecific rough-and-tumble play that consisted of alternating 15 sec blocks of heterospecific play and 15 sec of no-stimulation. High frequency ultrasonic vocalizations (USVs) were recorded and analyzed by sonogram with Avasoft SASlab Pro (Germany) as previously described by Burgdorf et al., “Positive emotional learning is regulated in the medial prefrontal cortex by GluN2B-containing NMDA receptors,” Neuroscience, 192:515-523 (2011). Frequency modulated 50-kHz USVs that occurred during each of the no-stimulation periods were quantified to measure PEL. Animals were not habituated to play stimulation before testing. Positive emotional learning was measured during the conditioned stimulus (CS) trials preceding the tickle unconditioned stimulus (UCS) trials. Animals received 15 second trials consisting of 6 CS and 6 UCS trials each (3 min total).
The table below summarizes the findings. As each experiment includes its own vehicle group, an example (typical) vehicle score is shown. Max effect (mean number of 50 kHz USVs per 15 seconds) is reported as ^: <6.0; *: 6.0-7.6; **: 7.7-10; ***:10.1-20

[8] = target: T4, NMDAR2D (Homo sapiens, UniProt O15399); assay: [3H]MK-801 binding in NMDAR2D expressing HEK cell membranes; type: biochemical; parameters: key to B: log EC50: 0=−; ≥1×10^−9 M (e.g., −8)=+; <1×10^−9 M (e.g., −10)=++
T4 construct: expressed in transfected cells; host or cells: HEK cells (membrane extract)
T4 sequence (O15399 28-1336, species assumed, other chains not shown): as above
Procedure: as §1, §2, §3, §4

[9] = Sprague Dawley, rat, in vivo, iv, 2 mg/kg
[10] = Sprague Dawley, rat, in vivo, iv, 2 mg/kg, read-out: C0
[11] = Sprague Dawley, rat, po, 10 mg/kg
[12] = Sprague Dawley, rat, po, 10 mg/kg, read-out: Cmax

| Structure (SMILES) | EC50 [1] | Emax [2] | EC50 [2] | Emax [3] | AUC(0-t) [4, 9] | clearance [4, 9] | half-life [4, 9] | C0 [4, 10] | Vd [4, 9] | CSF Cmax [5] | Brain Cmax [5] | AUC(0-t) [5, 11] | bioavailability [5, 11] | Cmax [5, 12] | A: % maximal [3H]MK-801 binding relative to 1 mM glycine [1] | Tmax ([5]; rat, po) | also measured |
| --- | --- | --- | --- | --- | --- | --- | --- | --- | --- | --- | --- | --- | --- | --- | --- | --- | --- |
| O=C1NCCC12CCCCN2 (stereo not drawn) [RG-601] | < 1 nM | < 100% | < 1 nM | > 100% | 2.28 µg·h/mL | 0.812 L/h/kg | 69.6 min | 2.85 µg/mL | 1.14 L/kg | 1.151 µg/mL | 1.447 µg/mL | 9.51 µg·h/mL | 83% | 3.99 µg/mL |  |  | Emax ([1]; read-out: A: % maximal [3H]MK-801 binding relative to 1 mM glycine): < 100%; Tmax [5, 11]: 49.8 min; Significance vs. vehicle ([6]; 1 wk post-dose): Yes (statistically significant (p<=0.05) from vehicle at dose level shown); % reduction in float time ([6]; 1 wk post-dose): 34.4%; Significance vs. vehicle ([6]; 1 h post-dose, floating time in 5 min test): Yes (statistically significant (p<=0.05) from vehicle at dose level shown); % reduction in float time ([6]; 1 h post-dose): 82.7% |
| CC(C)(C)OC(=O)N1CCCC2(CCNC2=O)C1 (single isomer, unassigned) [RE-1, tert-butyl 1-oxo-2,7-diazaspiro[4.5]decane-7-carboxylate] |  | < 100% | < 1 nM |  | 0.136 µg·h/mL |  | 16.2 min |  |  | 0.0861 µg/mL | 0.022 µg/mL | 0.273 µg·h/mL | 40% | 0.495 µg/mL | − (−=0) | 15 min | Max Effect (mean number of 50 kHz USVs per 15 seconds) [7]: *** (***:10.1-20); B: log EC50 [1]: −; A: % maximal [3H]MK-801 binding relative to 1 mM glycine ([8]; second part of table (r25-r35), c3, taken as NMDAR2D): + (<100%=+); EC50 ([3]; second part of table (r25-r35), c4, taken as NMDAR2D, read-out: B: log EC50 (converted)): < 1 nM; Vss ([4]; intravenous 2 mg/kg): 4.12 L/kg; C0 ([4]; intravenous 2 mg/kg): 0.5899 µg/mL |
| CC(C)(C)OC(=O)N1CCCCC12CCNC2=O (stereo not drawn) [RG-605] | < 1 nM |  |  | 0% | 1.58 µg·h/mL | 1.26 L/h/kg | 18 min | 3.36 µg/mL | 0.53 L/kg | 1.211 µg/mL | 0.733 µg/mL |  |  |  | + (<100%=+) | 15 min | A: % maximal [3H]MK-801 binding relative to 1 mM glycine [2]: − (−=0); B: log EC50 [2]: −; B: log EC50 ([8]; second part of table, c4, taken as NMDAR2D): −; % F [5]: 81%; AUClast [5]: 6.37 µg·h/mL; Cmax [5]: 6.478 µg/mL |
